Measurements: patent US20090203908A1, “Activator for Peroxisome Proliferator-Activated Receptor” (NIPPON CHEMIPHAR CO., LTD., priority 2005, published 2009)
Read-outs that look alike come from different tables or passages of the source.

Experiments:
[1] = biological target: T1, hPPAR γ (LBD) (Homo sapiens, UniProt P37231); assay: PPAR activating effect, GAL4-hPPARγ (LBD) luciferase reporter in CV-1 cells
T1 sequence (P37231 238-503 limits assumed): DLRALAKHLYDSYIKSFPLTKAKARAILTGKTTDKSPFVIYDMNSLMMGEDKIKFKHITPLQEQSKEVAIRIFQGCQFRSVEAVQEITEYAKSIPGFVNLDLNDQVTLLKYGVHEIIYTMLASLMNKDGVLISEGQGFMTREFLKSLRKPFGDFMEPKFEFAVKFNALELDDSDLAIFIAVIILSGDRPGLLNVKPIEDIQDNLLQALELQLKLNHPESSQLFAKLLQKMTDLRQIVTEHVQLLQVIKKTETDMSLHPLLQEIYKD
Description: (§1) For determining PPAR activating effects of the compounds according to the invention were measured by the following method:
(§2) After gene transfer utilizing a lipofection reagent DMRIE-C or Lipofectamin 2000 (Invitrogen), it is incubated for 42 hours in the presence of the test compound. Then, the luciferase activity and β-GAL activity are measured on the soluble cells. The luciferase activity is calibrated by the β-GAL activity.
(§3) The PPAR activating effects of test compounds (compounds of Examples) were measured by the following method:
(§4) After gene transfer utilizing a lipofection reagent DMRIE-C or Lipofectamin 2000 (Invitrogen), it is incubated for approx. 40 hours in the presence of the test compound. Then, the luciferase activity and β-GAL activity are measured on the soluble cells. The luciferase activity is calibrated by the β-GAL activity. […] Then, EC50 was obtained.

[2] = biological target: T2, hPPAR α (LBD) (Homo sapiens, UniProt Q07869); assay: PPAR activating effect, GAL4-hPPARα (LBD) luciferase reporter in CV-1 cells
T2 sequence (Q07869 239-466 limits assumed): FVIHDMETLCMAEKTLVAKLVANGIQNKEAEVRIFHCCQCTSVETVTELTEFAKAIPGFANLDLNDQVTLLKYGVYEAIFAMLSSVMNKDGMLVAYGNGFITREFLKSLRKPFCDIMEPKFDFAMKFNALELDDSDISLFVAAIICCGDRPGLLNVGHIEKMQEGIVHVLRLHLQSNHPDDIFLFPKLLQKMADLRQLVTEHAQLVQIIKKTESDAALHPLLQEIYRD
Description: as §1, §2, §3, §4

[3] = biological target: T3, hPPAR δ (LBD) (Homo sapiens, UniProt Q03181); assay: PPAR activating effect, GAL4-hPPARδ (LBD) luciferase reporter in CV-1 cells
T3 sequence (Q03181 211-439 limits assumed): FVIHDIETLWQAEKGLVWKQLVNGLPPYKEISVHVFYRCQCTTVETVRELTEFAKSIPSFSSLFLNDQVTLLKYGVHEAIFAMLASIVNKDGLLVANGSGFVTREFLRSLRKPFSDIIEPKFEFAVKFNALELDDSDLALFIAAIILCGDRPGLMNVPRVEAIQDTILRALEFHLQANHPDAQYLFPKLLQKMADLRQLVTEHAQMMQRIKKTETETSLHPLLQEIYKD
Description: as §1, §2, §3, §4

[4] = test system: hPPAR α or γ or δ (LBD); assay: PPAR activating effect, overall assessment over the subtypes (GAL4-hPPAR luciferase reporter in CV-1 cells); details: summary of Table 17, PPARα and PPARγ
Description: as §1, §2, §3, §4

Row | EC50 [1] [nM] | EC50 [2] [nM] | EC50 [3] [nM] | SMILES | α/γ dual agonist effects (in words) [4] | EC50 ([3]; read-out: PPAR activity: EC50, δ, CV-1 cells, approx. 40 hours incubation, 100% control GW-501516 10^−7 M) [nM] | PPARα agonist effect (in words) ([2]; summary of Table 17)
1 | 490 | 550 | 4900 | Cc1ccc(N2CCN(Cc3nc(-c4ccc(C(F)(F)F)cc4)sc3CCC(=O)c3ccc(OC(C)(C)C(=O)O)c(C)c3)CC2)cc1 [Example 6, 2-[4-[3-[4-[4-(4-Methylphenyl)piperazin-1-yl-methyl]-2-(4-trifluoromethylphenyl)-5-thiazolyl]propionyl]-2-methylphenoxy]-2-methylpropionic Acid] |  |  | 
2 | 300 | 92 | 3000 | Cc1cc(C(=O)CCc2sc(-c3ccc(C(F)(F)F)cc3)nc2CN2CCN(c3ccc(C(C)C)cc3)CC2)ccc1OC(C)(C)C(=O)O [Example 11, 2-[4-[3-[4-[4-(4-Isopropylphenyl)piperazin-1-ylmethyl]-2-(4-trifluoromethylphenyl)-5-thiazolyl]propionyl]-2-methylphenoxy]-2-methylpropionic Acid] | good α/γ dual agonist effects |  | 
3 | 1700 | 940 | 3800 | COc1ccc(N2CCN(Cc3nc(-c4ccc(C(F)(F)F)cc4)sc3CCC(=O)c3ccc(OC(C)(C)C(=O)O)c(C)c3)CC2)cc1OC [Example 12, 2-[4-[3-[4-[4-(3,4-Dimethoxyphenyl)piperazin-1-ylmethyl]-2-(4-trifluoromethylphenyl)-5-thiazolyl]propionyl]-2-methylphenoxy]-2-methylpropionic Acid] |  |  | 
4 |  |  |  | COc1ccc(CC2SC(=O)NC2=O)cc1C(=O)NCc1ccc(C(F)(F)F)cc1 (stereo not shown) [KRP-297, reference compound] |  | 13900 | 
5 | 3200 | 90 | 5200 | Cc1cc(C(=O)CCc2sc(-c3ccc(C(F)(F)F)cc3)nc2CN2CCN(c3ccc(C(F)(F)F)cc3)CC2)ccc1OC(C)(C)C(=O)O [Example 5, 2-[4-[3-[4-[4-(4-Trifluoromethylphenyl)-piperazin-1-ylmethyl]-2-(4-trifluoromethylphenyl)-5-thiazolyl]propionyl]-2-methylphenoxy]-2-methylpropionic Acid] |  |  | strong and selective PPARα agonist effect
6 | 660 | > 10000 | 920 | COc1ccc(N2CCN(Cc3nc(-c4ccc(C(F)(F)F)cc4)sc3CCC(=O)c3ccc(OC(C)(C)C(=O)O)c(C)c3)CC2)cc1 [Example 3, 2-[4-[3-[4-[4-(4-Methoxyphenyl)piperazin-1-yl-methyl]-2-(4-trifluoromethylphenyl)-5-thiazolyl]propionyl]-2-methylphenoxy]-2-methylpropionic Acid] |  |  | 
7 | 1300 | 210 | 4400 | COc1cccc(N2CCN(Cc3nc(-c4ccc(C(F)(F)F)cc4)sc3CCC(=O)c3ccc(OC(C)(C)C(=O)O)c(C)c3)CC2)c1 [Example 4, 2-[4-[3-[4-[4-(3-Methoxyphenyl)piperazin-1-yl-methyl]-2-(4-trifluoromethylphenyl)-5-thiazolyl]propionyl]-2-methylphenoxy]-2-methylpropionic Acid] |  |  | 
8 | 290 | 180 | 2300 | Cc1cc(C(=O)CCc2sc(-c3ccc(C(F)(F)F)cc3)nc2CN2CCN(c3ccc(OC(C)C)cc3)CC2)ccc1OC(C)(C)C(=O)O [Example 16, 2-[4-[3-[4-[4-(4-Isopropyloxyphenyl)piperazin-1-ylmethyl]-2-(4-trifluoromethylphenyl)-5-thiazolyl]propionyl]-2-methylphenoxy]-2-methylpropionic Acid] | good α/γ dual agonist effects |  | 
9 | 280 | 330 | 1100 | CCOc1ccc(N2CCN(Cc3nc(-c4ccc(C(F)(F)F)cc4)sc3CCC(=O)c3ccc(OC(C)(C)C(=O)O)c(C)c3)CC2)cc1 [Example 13, 2-[4-[3-[4-[4-(4-Ethoxyphenyl)piperazin-1-yl-methyl]-2-(4-trifluoromethylphenyl)-5-thiazolyl]propionyl]-2-methylphenoxy]-2-methylpropionic Acid] |  |  | 
10 | 750 | 290 | 6300 | Cc1cc(C(=O)CCc2sc(-c3ccc(C(F)(F)F)cc3)nc2CN2CCN(c3ccc(OC(F)(F)F)cc3)CC2)ccc1OC(C)(C)C(=O)O [Example 15, 2-[4-[3-[4-[4-(4-Trifluoromethoxyphenyl)piperazin-1-ylmethyl]-2-(4-trifluoromethylphenyl)-5-thiazol-yl]propionyl]-2-methylphenoxy]-2-methylpropionic Acid] |  |  | 
